Source: ChEMBL document CHEMBL2029321, “Identification of chalcones as potent and selective PDE5A1 inhibitors” (Bioorg Med Chem Lett, 2012)

Columns and labels:
[1] = biological target: cGMP-specific 3',5'-cyclic phosphodiesterase (Homo sapiens) (UniProt O76074); test: Inhibition of PDE5A1 at 10 ug/mL
[2] = Inhibition of rabbit corpus cavernosum PDE6; set-up: species or system Oryctolagus cuniculus
Phosphodiesterase 4 = Phosphodiesterase 4 (Homo sapiens, UniProt P27815+Q08499+Q07343+Q08493); test: Inhibition of human neutrophil PDE4; format: protein assay
[3] = biological target: cGMP-specific 3',5'-cyclic phosphodiesterase (Bos taurus, UniProt Q28156); test: Inhibition of bovine platelet PDE5

Compound | inhibition [1] [%] | IC50 [2] [µM] | IC50 (Phosphodiesterase 4) [µM] | IC50 [3] [µM]
COc1c2c(c(C(=O)/C=C/c3ccc(Cl)cc3Cl)c3c1OCO3)CCN(C)C2 | 8.17 | – | – | –
COc1ccc(OC)c(/C=C/C(=O)c2c3c(c(OC)c4c2OCO4)CN(C)CC3)c1 | 45.5 | – | – | –
COc1cccc(/C=C/C(=O)c2c3c(c(OC)c4c2OCO4)CN(C)CC3)c1OC | 43.9 | – | – | –
COc1ccc(OC)c(/C=C/C(=O)c2ccc(SC)cc2)c1 | 26.6 | – | – | –
COc1ccccc1/C=C/C(=O)c1cc(OC)c(OC)cc1CCNC(C)=O | 19.9 | – | – | –
CCCc1nn(C)c2c(=O)[nH]c(-c3cc(S(=O)(=O)N4CCN(C)CC4)ccc3OCC)nc12 | – | 0.1 | – | –
COc1ccc(OC)c(/C=C/C(=O)c2ccc(OC)cc2OC)c1 | 58.7 | > 10 | 4.9 | 6
COc1ccc(/C=C/C(=O)c2c3c(c(OC)c4c2OCO4)CN(C)CC3)cc1 | 31.8 | – | – | –
COc1cc(CCNC(C)=O)c(C(=O)/C=C/c2cccc(OC)c2OC)cc1OC | 27.7 | – | – | –
COc1ccc(OC)c(/C=C/C(=O)c2cc(OC)c(C)cc2OC)c1 | 20.2 | – | – | –
COc1ccc(OC)c(/C=C/C(=O)c2ccc(Cl)cc2)c1 | 8.1 | – | – | –
COC(=O)C[N+]1(C)CCc2c(cc3c(c2C(=O)/C=C/c2cc(OC)ccc2OC)OCO3)C1 (configuration not stated) | 7.2 | – | – | –
COc1ccc(/C=C/C(=O)c2cc(OC)c(OC)cc2CCNC(C)=O)c(OC)c1 | 45.5 | – | – | –
COc1ccc(C(=O)/C=C/c2cccc(OC)c2OC)c(OC)c1 | 46.7 | – | – | –
COc1cccc(/C=C/C(=O)c2c3c(c(OC)c4c2OCO4)CN(C)CC3)c1 | 64.8 | > 10 | > 10 | 6.2
COc1ccc(/C=C/C(=O)c2c(O)cc(OC)c(OC)c2OC)c(OC)c1 | 35.7 | – | – | –

Compound | inhibition [1] [%] | IC50 [2] [µM] | IC50 (Phosphodiesterase 4) [µM] | IC50 [3] [µM]
COc1ccc(/C=C/C(=O)c2cc(Cl)ccc2OC)cc1OC | 3.5 | – | – | –
COc1ccc(C(=O)/C=C/c2cc(OC)c(OC)cc2OC)c(OC)c1 | 65.9 | > 10 | > 10 | 1.8
COc1ccc(C(=O)/C=C/c2ccccc2OC)c(OC)c1 | 43.1 | – | – | –
COc1ccc(OC)c(/C=C/C(=O)c2ccc(OC)c(OC)c2)c1 | 47.3 | – | – | –
COc1ccc(C2CNC(=O)C2)cc1OC1CCCC1 (configuration not stated) [ROLIPRAM] | – | > 10 | – | –
CCCOc1ccccc1-c1nc2[nH]nnc2c(=O)[nH]1 [ZAPRINAST] | – | 0.4 | – | –
COC(=O)C[N+]1(C)CCc2c(c(OC)c3c(c2C(=O)/C=C/c2ccc(OC)cc2OC)OCO3)C1 (configuration not stated) | 18.3 | – | – | –
COc1ccc(/C=C/C(=O)c2cc(OC)ccc2OC)cc1 | 25.6 | – | – | –
COc1ccc(/C=C/C(=O)c2c3c(c(OC)c4c2OCO4)CN(C)CC3)c(OC)c1OC | 37.1 | – | – | –
COc1ccc(OC)c(C(=O)/C=C/c2cc(OC)c(C)cc2OC)c1 | 24.9 | – | – | –
COc1ccc(OC)c(/C=C/C(=O)c2cc(OC)c(OC)cc2CCNC(C)=O)c1 | 47.4 | – | – | –
COc1ccc(C(=O)/C=C/c2cc(Cl)ccc2Cl)c(OC)c1 | 39.5 | – | – | –
COc1ccc(C(=O)/C=C/c2ccc(OC)c(OC)c2)c(O)c1 | 23.8 | – | – | –
COc1ccc(/C=C/C(=O)c2c(OCc3ccccc3)cc(OC)c(OC)c2OC)cc1OC | 77.7 | > 10 | 2.3 | 5.9
COc1ccc(/C=C/C(=O)c2c3c(c(OC)c4c2OCO4)CN(C)CC3)c(OC)c1 | 35.1 | – | – | –
COc1ccc(OC)c(C(=O)/C=C/c2ccc(OC)c(OC)c2)c1 | 66.1 | > 10 | 8.2 | 7
